Where two headings read alike, the source gives them in different places.
Legend:
DtabGOBP1 [1] = molecular target: T1, DtabGOBP1 (Dendrolimus tabulaeformis, UniProt A0A059PCQ9); experiment: Competitive fluorescence binding assay (displacement of 1-NPN), DtabGOBP1; settings: for abnormal fluorescence binding curve (in words): 1-NPN fluorescence on addition of ligand
Protocol: (§1) Emission fluorescence spectra were performed on an F-4500 fluorescence Spectrophotometer (Hitachi, Japan) at 25 °C with a 1 cm light path quartz cuvette and 5 nm slits for both excitation and emission. The protein was dissolved in 50 mM Tris–HCl buffer, pH 7.4, while ligands used in the binding assay were added as 1 mM methanol solutions. The fluorescence of the mixture was recorded after 5 min to allow the signal to stabilize.
(§2) To measure the affinity of the fluorescent ligand 1-NPN to DtabPBP1, DtabGOBP1, and DtabGOBP2, a 2 μM solution of the protein in 50 mM Tris–HCl, pH 7.4, was titrated with aliquots of 1 mM 1-NPN dissolved in methanol to a final concentration of 16 μM. The probe was excited at 337 nm, and emission spectra were recorded between 380 and 450 nm. To evaluate the effect of pH on the binding affinity of the three OBPs, we also measured their binding with 1-NPN at a pH range of 4.5–9.0. The displacement of 1-NPN by selected ligands was measured in competitive binding assays using both the protein and 1-NPN at 2 μM. The mixtures were titrated with 1 mM methanol solutions of each competitor over concentration ranges of 2–16 μM. The fluorescence of the mixture was recorded after 5 min. Dissociation constants for 1-NPN and the stoichiometry of binding were obtained from Scatchard plots of the binding data through processing the data with Prism software. For other competitor ligands, the dissociation constants were calculated from the corresponding IC50 values using the equation: Ki = [IC50]/(1 + [1 − NPN]/K1 − NPN), where [1-NPN] is the free concentration of 1-NPN and K1-NPN is the dissociation constant of the protein complex/1-NPN.
(§3) To understand the ligand binding properties of the three OBPs, we prepared the recombinant proteins. Figure S5 reports the expression and purification of them. Then, we performed competitive ligand-binding experiments using well established protocols for other insect OBPs (Ban et al. [2002], [2003b]; Guo et al. [2012]; He et al. [2010]; Zhou et al. [2009]) to investigate the specificity of the binding pocket in the three D. tabulaeformis OBPs. The probe was excited at 337 nm, and emission spectra were recorded between 380 and 450 nm. […] The three proteins DtabPBP1, DtabGOBP1, and DtabGOBP2 bind 1-NPN with dissociation constants 12.5 ± 1.7, 14.4 ± 2.6, and 8.5 ± 0.6, respectively (Fig. 4a).

DtabPBP1 [2] = molecular target: T2, DtabPBP1 (Dendrolimus tabulaeformis, UniProt A0A059PCM8); experiment: Competitive fluorescence binding assay (displacement of 1-NPN), DtabPBP1
Protocol: as §1, §2, §3

DtabGOBP2 [3] = molecular target: T3, DtabGOBP2 (Dendrolimus tabulaeformis, UniProt A0A059PCR0); experiment: Competitive fluorescence binding assay (displacement of 1-NPN), DtabGOBP2
Protocol: as §1, §2, §3

DtabGOBP1 [4] = molecular target: T1, DtabGOBP1; experiment: Fluorescence titration of protein with 1-NPN (Scatchard plot), DtabGOBP1; assay type: binding
Protocol: as §1
(§4) To measure the affinity of the fluorescent ligand 1-NPN to DtabPBP1, DtabGOBP1, and DtabGOBP2, a 2 μM solution of the protein in 50 mM Tris–HCl, pH 7.4, was titrated with aliquots of 1 mM 1-NPN dissolved in methanol to a final concentration of 16 μM. The probe was excited at 337 nm, and emission spectra were recorded between 380 and 450 nm. To evaluate the effect of pH on the binding affinity of the three OBPs, we also measured their binding with 1-NPN at a pH range of 4.5–9.0. The displacement of 1-NPN by selected ligands was measured in competitive binding assays using both the protein and 1-NPN at 2 μM. The mixtures were titrated with 1 mM methanol solutions of each competitor over concentration ranges of 2–16 μM. The fluorescence of the mixture was recorded after 5 min. […]
(§5) To understand the ligand binding properties of the three OBPs, we prepared the recombinant proteins. […] The probe was excited at 337 nm, and emission spectra were recorded between 380 and 450 nm. […]

DtabGOBP2 [5] = molecular target: T3, DtabGOBP2; experiment: Fluorescence titration of protein with 1-NPN (Scatchard plot), DtabGOBP2; assay type: binding
Protocol: as §1, §4, §5

DtabPBP1 [6] = molecular target: T2, DtabPBP1; experiment: Fluorescence titration of protein with 1-NPN (Scatchard plot), DtabPBP1; assay type: binding
Protocol: as §1, §4, §5

[7] = DtabGOBP1, 1-NPN fluorescence at ligand max conc 16, protein and 1-NPN at 2 μM, pH 7.4
[8] = DtabPBP1, 1-NPN fluorescence at ligand max conc 16, protein and 1-NPN at 2 μM, pH 7.4
[9] = DtabGOBP2, 1-NPN fluorescence at ligand max conc 16, protein and 1-NPN at 2 μM, pH 7.4
[10] = 2 μM protein, 50 mM Tris–HCl pH 7.4, Scatchard plot, read-out: dissociation constant (Kd) of 1-NPN
[11] = pH 4.5–9.0, protein and 1-NPN at 2 μM
[12] = DtabGOBP1, 1-NPN fluorescence at ligand max conc 16, protein and 1-NPN at 2 μM, pH 7.4, read-out: %of max±SE
[13] = DtabPBP1, 1-NPN fluorescence at ligand max conc 16, protein and 1-NPN at 2 μM, pH 7.4, read-out: %of max±SE
[14] = DtabGOBP2, 1-NPN fluorescence at ligand max conc 16, protein and 1-NPN at 2 μM, pH 7.4, read-out: %of max±SE

T3 sequence (A0A059PCR0 entry or part of it): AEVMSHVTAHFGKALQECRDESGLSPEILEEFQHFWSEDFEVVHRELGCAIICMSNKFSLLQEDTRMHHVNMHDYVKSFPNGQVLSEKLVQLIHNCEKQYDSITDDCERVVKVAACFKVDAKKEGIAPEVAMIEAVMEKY
T1 sequence (A0A059PCQ9 entry or part of it): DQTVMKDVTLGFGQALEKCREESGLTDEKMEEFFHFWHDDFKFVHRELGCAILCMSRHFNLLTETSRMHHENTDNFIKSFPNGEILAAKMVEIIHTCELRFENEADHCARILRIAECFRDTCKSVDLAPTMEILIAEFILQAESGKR
T2 sequence (A0A059PCM8 entry or part of it): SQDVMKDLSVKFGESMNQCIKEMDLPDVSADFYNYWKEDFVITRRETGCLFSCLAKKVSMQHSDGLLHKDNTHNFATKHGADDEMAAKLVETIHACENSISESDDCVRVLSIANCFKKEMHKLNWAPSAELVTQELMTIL

Compound	%of max±SE (DtabGOBP1 [1]; [7])	%of max±SE (DtabPBP1 [2]; [8])	%of max±SE (DtabGOBP2 [3]; [9]) [%]	activity at 16 µM (DtabGOBP1 [1]; [12]) [%]	activity at 16 µM (DtabPBP1 [2]; [13]) [%]	activity at 16 µM (DtabGOBP2 [3]; [14]) [%]	also measured
CC1=CCC2C(C1)C2(C)C (single isomer, unassigned; (+)) [(+)-3-Carene, (+)-3-carene]	Abnormal	85.3±1.7%	84.3±0.9	–	–	–	abnormal fluorescence binding curve (in words) (DtabGOBP1 [1]; DtabGOBP1): increased 1-NPN fluorescence
C=C(C)C1CC=C(C)CC1 (single isomer, unassigned; (+)) [(+)-Limonene, (+)-limonene]	78.2±1.1%	94.4±0.4%	88.0±1.3	–	–	–	–
c1ccc(Nc2cccc3ccccc23)cc1 [1-NPN]	–	–	–	–	–	–	Kd (DtabGOBP1 [4]; [10]): 14.4 ± 2.6 µM; effect of pH on affinity for 1-NPN (in words) (DtabGOBP1 [4]; [11]): rapid loss of affinity in acidic conditions; Kd (DtabGOBP2 [5]; [10]): 8.5 ± 0.6 µM; effect of pH on affinity for 1-NPN (in words) (DtabGOBP2 [5]; [11]): rapid loss of affinity in acidic conditions; Kd (DtabPBP1 [6]; [10]): 12.5 ± 1.7 µM; effect of pH on affinity for 1-NPN (in words) (DtabPBP1 [6]; [11]): rapid loss of affinity in acidic conditions
CC1=CCC2CC1C2(C)C (stereo not drawn) [(-)-α-Pinene, (−)-α-pinene]	96.4±0.3%	85.4±0.4%	90.8±0.4	–	–	–	–
C=C1CCC2CC1C2(C)C (stereo not drawn) [(-)-β-Pinene, (−)-β-pinene]	82.8±1.0%	80.7±0.5%	83.2±1.1	–	–	–	–
CC/C=C\CCO [(Z)-3-Hexen-1-ol, (Z)-3-hexen-1-ol]	–	–	–	–	–	–	activity at 16 µM (DtabGOBP1 [1]; pH 7.4, read-out: %of max±SE): 96.5 ± 1.4%; activity at 16 µM (DtabPBP1 [2]; pH 7.4, read-out: %of max±SE): 94.6 ± 0.2%; activity at 16 µM (DtabGOBP2 [3]; pH 7.4, read-out: %of max±SE): 90.8 ± 0.6%
C=C1C2CCC(C2)C1(C)C (stereo not shown) [Camphene, camphene]	–	–	–	–	–	–	activity at 16 µM (DtabGOBP1 [1]; pH 7.4, read-out: %of max±SE): 96.7 ± 1.2%; activity at 16 µM (DtabPBP1 [2]; pH 7.4, read-out: %of max±SE): 96.5 ± 0.2%; activity at 16 µM (DtabGOBP2 [3]; pH 7.4, read-out: %of max±SE): 93.8 ± 0.7%
C=CC(C)(O)CCC=C(C)C (stereo not shown) [Linalool, linalool]	–	–	–	90.4 ± 0.9	90.4 ± 0.7	95.2 ± 0.6	–
CC1=CCC(=C(C)C)CC1 [Terpinolene, terpinolene]	–	–	–	100 ± 3.2	90.3 ± 0.2	85.3 ± 1.8	–
CCCC/C=C/C=C\CCCCOC(C)=O [Z5,E7-12:OAc, (5Z,7E)-5,7-dodecadien-1-yl acetate]	–	–	–	67.9 ± 1.1	74.7 ± 1	66.2 ± 0.3	–
CCCC/C=C/C=C\CCCCO [Z5,E7-12:OH, (5Z,7E)-5,7-dodecadien-1-ol]	–	–	–	81 ± 1	74.5 ± 0.6	65.6 ± 0.8	–
CCCC/C=C/C=C\CCCCOC(=O)CC [Z5,E7-12:OPr, (5Z,7E)-5,7-dodecadien-1-yl propionate]	–	–	–	37.1 ± 0.5	44.5 ± 0.6	44.8 ± 0.7	Ki (DtabGOBP1 [1]; DtabGOBP1): 1.9 µM; binding affinity / displacement of 1-NPN (in words) (DtabGOBP1 [1]; DtabGOBP1): high binding affinities; Kd (DtabGOBP1 [1]; DtabGOBP1, calculated from IC50 of 1-NPN displacement, read-out: KD±SE): 1.9 ± 0.2 µM; Ki (DtabPBP1 [2]; DtabPBP1): 3.61 µM; binding affinity / displacement of 1-NPN (in words) (DtabPBP1 [2]; DtabPBP1): high binding affinities; Kd (DtabPBP1 [2]; DtabPBP1, calculated from IC50 of 1-NPN displacement, read-out: KD±SE): 3.6 ± 0.3 µM; Ki (DtabGOBP2 [3]; DtabGOBP2): 2.7 µM; binding affinity / displacement of 1-NPN (in words) (DtabGOBP2 [3]; DtabGOBP2): high binding affinities; Kd (DtabGOBP2 [3]; DtabGOBP2, calculated from IC50 of 1-NPN displacement, read-out: KD±SE): 2.7 ± 0.3 µM
CCCCCC/C=C\CCCCOC(C)=O [Z5-12:OAc, (Z)-5-dodecenyl acetate]	Abnormal	Abnormal	–	–	–	66.6 ± 0.7	abnormal fluorescence binding curve (in words) (DtabGOBP1 [1]; DtabGOBP1): increase in fluorescence at high concentrations
CCCCCC/C=C\CCCCO [Z5-12:OH, (Z)-5-dodecenyl alcohol]	–	–	–	77.2 ± 0.3	75.1 ± 0.2	67 ± 0.5	–
CC1=CC=C(C(C)C)CC1 [α-Terpinene, α-terpinene]	–	–	–	–	–	–	activity at 16 µM (DtabGOBP1 [1]; pH 7.4, read-out: %of max±SE): 81.8 ± 1.3%; activity at 16 µM (DtabPBP1 [2]; pH 7.4, read-out: %of max±SE): 86.7 ± 0.7%; activity at 16 µM (DtabGOBP2 [3]; pH 7.4, read-out: %of max±SE): 93.2 ± 0.9%
C=CC(=C)CCC=C(C)C [β-Myrene, β-myrene]	67.8±0.8%	86.5±0.8%	83.3±0.7	–	–	–	1-NPN displaced (DtabGOBP1 [1]; DtabGOBP1, at a max concentration of ligand): 30%
CC1=CCC(C(C)C)=CC1 [γ-Terpinene, γ-terpinene]	–	–	–	–	–	–	inhibition at 16 µM (DtabGOBP1 [1]; pH 7.4, read-out: 1-NPN displaced): 30%; activity at 16 µM (DtabGOBP1 [1]; pH 7.4, read-out: %of max±SE): 71.8 ± 0.7%; activity at 16 µM (DtabPBP1 [2]; pH 7.4, read-out: %of max±SE): 88.1 ± 0.3%; activity at 16 µM (DtabGOBP2 [3]; pH 7.4, read-out: %of max±SE): 99.3 ± 0.4%
(+)-α-pinene	98.3±2.2%	83.9±0.3%	88.8±2.2	–	–	–	–
(−)-limonene [(-)-Limonene]	80.5±1.1%	93.8±0.6%	94.1±0.8	–	–	–	–

Source: PMC4008786, “Molecular Characterization, Expression Pattern, and Ligand-Binding Property of Three Odorant Binding Protein Genes from Dendrolimus tabulaeformis” (Journal of Chemical Ecology, 2014)
